Reference: PubChem BioAssay (NCI)
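Results reflect a 48-hour exposure of cells in 96-well plates to compound at five concentrations. Here, GI50 denotes the concentration required for 50% inhibition of growth. TGI is the concentration that stops growth completely.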

Key:
Assay in all cases: NCI anticancer screen, dose series, 48 h
CCRF-CEM leukemia = system: CCRF-CEM leukemia
EKVX NSCLC = system: EKVX NSCLC
HCT-15 colon = system: HCT-15 colon
LOX IMVI melanoma = system: LOX IMVI melanoma
MALME-3M melanoma = system: MALME-3M melanoma
OVCAR-3 ovarian = system: OVCAR-3 ovarian
OVCAR-4 ovarian = system: OVCAR-4 ovarian
SK-MEL-28 melanoma = system: SK-MEL-28 melanoma
MDA-MB-231 breast = system: MDA-MB-231 breast
T-47D breast = system: T-47D breast

Row | Structure (SMILES) | TGI (CCRF-CEM leukemia) [µM] | TGI (EKVX NSCLC) [µM] | TGI (HCT-15 colon) [µM] | TGI (LOX IMVI melanoma) [µM] | TGI (MALME-3M melanoma) [µM] | TGI (OVCAR-3 ovarian) [µM] | TGI (OVCAR-4 ovarian) [µM] | TGI (SK-MEL-28 melanoma) [µM] | GI50 (EKVX NSCLC) [µM] | GI50 (HCT-15 colon) [µM] | GI50 (LOX IMVI melanoma) [µM] | GI50 (MALME-3M melanoma) [µM] | GI50 (MDA-MB-231 breast) [µM] | TGI (MDA-MB-231 breast) [µM] | GI50 (OVCAR-3 ovarian) [µM] | GI50 (OVCAR-4 ovarian) [µM] | GI50 (SK-MEL-28 melanoma) [µM] | GI50 (T-47D breast) [µM] | TGI (T-47D breast) [µM] | GI50 (CCRF-CEM leukemia) [µM]
1 | CCCCCCCCCC(=O)Oc1cccc2onc(C)c12 | > 100 | > 100 | > 100 | > 100 | > 100 | > 100 | > 100 | > 100 |  |  |  |  |  |  |  |  |  |  |  | 
2 | NC(=O)c1c[se]c(C2OC(COP(=O)(O)CP(=O)(O)OCC3OC(n4cnc5c(N)ncnc54)C(O)C3O)C(O)C2O)n1 (stereo not given) | > 100 | > 100 |  |  | > 100 | > 100 | > 100 | > 100 |  |  |  |  |  |  |  |  |  |  |  | 
3 | O=[N+]([O-])C1C2C=CC(C2)[C@H]1c1ccc(Cl)cc1Cl (stereo not given in full) | > 100 |  | > 100 | > 100 | > 100 |  |  | > 100 |  |  |  |  |  |  |  |  |  |  |  | 
4 | CCC(=O)c1cc([N+](=O)[O-])c(Br)s1 |  | 34.8 | 8.21 | 3.46 | 3.87 | 3.32 | 3.65 | 15.2 | 16.4 | 2.47 | 1.88 | 1.85 | 6.79 | 21.3 | 1.91 | 1.86 | 4.17 |  |  | 
5 | Cc1ccc(-n2c3c(c4c(CN5CCOCC5)c(O)ccc42)CCc2ccccc2C3=O)cc1 |  | > 100 | > 100 | > 100 |  | > 100 |  |  | > 100 | > 100 | > 100 |  | 37.8 | > 100 | 71.2 |  |  | > 100 | > 100 | 
6 | O=C(O)[C@@H]1CCCC[C@@H]1C(=O)N(C1CCCCC1)C1CCCCC1 | > 100 | > 100 | > 100 | > 100 | > 100 | > 100 | > 100 | > 100 |  |  |  |  |  |  |  |  |  |  |  | 
7 | CC1(C)OC(COCCOCCCCCO)C(COCCOCCCCCO)O1 (stereo not given) |  | > 100 | > 100 | > 100 | > 100 | > 100 | > 100 | > 100 |  |  |  |  |  |  |  |  |  |  |  | 
8 | CC12OC(C(=O)C13CCC3)C1C(=O)c3ccccc3C(=O)C12 (stereo not given) | > 100 | > 100 | > 100 |  | > 100 |  |  | > 100 | > 100 | > 100 |  | 33 | 10.4 | > 100 |  |  | > 100 | 44 | > 100 | 36.9
9 | COc1cc2cccc(N=Cc3c(Br)ccc(OC)c3OC(C)C)c2cc1OC | 90.4 | > 100 |  |  | > 100 | > 100 | > 100 | > 100 |  |  |  |  |  |  |  |  |  |  |  | 
10 | Cc1nnc(N=Nc2c(O)[nH]c3ccccc23)n1N | > 100 | > 100 | > 100 | > 100 | > 100 | > 100 | > 100 | > 100 |  |  |  |  |  |  |  |  |  |  |  | 
11 | NS(=O)(=O)c1ccc(NC(=O)c2cccn3c(=O)c4ccccc4nc23)cc1 | > 100 | > 100 |  | > 100 | > 100 | > 100 | > 100 | > 100 |  |  |  |  |  |  |  |  |  |  |  | 
12 | C[N+](C)=c1nc(N2CCOCC2)ss1 | > 100 | > 100 | > 100 | > 100 |  |  |  | > 100 |  |  |  |  |  |  |  |  |  |  |  | 
13 | CN(C)C(=O)SC1=C(c2c(Cl)cccc2Cl)C(=O)c2ccccc21 | 9.27 | 40.3 | 6.28 | 3.75 | 3.74 | 3.8 | 10.8 | 8.89 | 17.4 | 2.2 | 1.74 | 1.66 | 5.6 | 13.7 | 1.96 | 4.24 | 3.16 |  |  | 2.67
14 | COC(=O)c1cc2c3c(ccc2[nH]1)N(C(=O)c1cc2c4c(ccc2[nH]1)N(C(=O)c1cc2c5c(ccc2[nH]1)N(C(N)=O)CC5)CC4)CC3 | > 51.2 | > 100 | > 100 | > 34 | > 24.2 | > 28.9 | > 100 | > 100 |  |  |  |  |  |  |  |  |  |  |  | 
15 | c1ccc(NC[Si]23OCCN(CCO2)CCO3)cc1 | > 100 | > 100 |  |  | > 100 | > 100 |  | > 100 |  |  |  |  |  |  |  |  |  |  |  | 
16 | COc1nc2c(c(O)c(C)c(=O)n2OC2OC(COC(C)=O)C(OC(C)=O)C(OC(C)=O)C2OC(C)=O)c(=O)n1C (stereo not given) | > 100 | > 100 | > 100 | > 100 |  |  | > 100 | > 100 |  |  |  |  |  |  |  |  |  |  |  | 
17 | COc1ccc(CC2=NCCc3cc(OC)c(OC)cc32)cc1Br | > 100 | > 100 |  | 30.3 | 70.4 |  | > 100 | > 100 |  |  |  |  |  |  |  |  |  |  |  | 
18 | C=C(CNCCc1ccc(O)cc1)[C@@H]1CC[C@]2(CO)CC[C@]3(C)[C@H](CC[C@@H]4[C@@]5(C)CCC(N)C(C)(C)[C@@H]5CC[C@]43C)[C@@H]12 (stereo not given in full) | 1.23 | 3.36 |  |  | 3.09 | 3.1 | 2.95 | 3.28 | 1.66 |  |  | 1.58 | 1.11 | 2.38 | 1.65 | 1.44 | 1.76 | 1.64 | 3.58 | 0.28
19 | C[C@@]12CCCC(=O)N1[C@@H](CO)C(c1ccccc1)O2 (stereo not given in full) |  | > 100 | > 100 | > 100 | > 100 | > 100 | > 100 | > 100 |  |  |  |  |  |  |  |  |  |  |  | 
20 | C=CC1=CC(C)C[C@]1(O)C(=O)OC (stereo not given in full) |  |  | > 100 |  |  |  |  |  | > 100 |  | > 100 | > 100 |  |  | > 100 | > 100 | > 100 |  |  | > 100
21 | CCCn1cnc2c(SCc3ccccc3)nc(N)nc21 | > 100 | > 100 | > 100 | > 100 | > 100 | > 100 |  | > 100 | 67.3 | 37.8 | 98.9 | > 100 | > 100 | > 100 | > 100 |  | > 100 | 56.9 | > 100 | 72.9
22 | Cn1cc(CO)c2ccccc21 | > 100 | > 100 | > 100 |  |  | > 100 | > 100 | > 100 | 50.7 | 22.4 |  |  | 52 | > 100 | 29.5 | 56.5 | 85.9 | 62.1 | > 100 | > 100
